Reference: patent US20040192910A1, “Sulfonylamino derivatives useful as herbicides” (priority 2001, published 2004)

Experiments:
Format in all cases: in vivo
Design in all cases: key: 1=total damage; 9=no action
Abutilon [1] = experiment: Post-emergence herbicidal action; details: 250 g a.i./ha (500 litres water/ha), sprayed at 4- to 6-leaf stage, evaluated after about 18 days; scale of nine ratings, 1 to 4 = good to very good action
Description: (§1) Post-Emergence Herbicidal Action
(§2) Monocotyledonous and dicotyledonous test plants are raised in a greenhouse in plastic pots containing standard soil and at the 4- to 6-leaf stage are sprayed with an aqueous suspension of the test compounds of formula I (prepared from a 25% wettable powder (Example F3, b) according to WO 97/34485) or with an emulsion of the test compounds of formula I (prepared from a 25% emulsifiable concentrate (Example F1, c) according to WO 97/34485) at a rate of application corresponding to 250 g a.i./ha (500 litres water/ha). The test plants are then grown on in the greenhouse under optimum conditions. After a test duration of about 18 days, the test is evaluated in accordance with a scale of nine ratings (1=total damage, 9=no action). Ratings of from 1 to 4 (especially from 1 to 3) indicate good to very good herbicidal action.

Amarantus [2] = experiment: Post-emergence herbicidal action; details: 250 g a.i./ha (500 litres water/ha), sprayed at 4- to 6-leaf stage, evaluated after about 18 days; scale of nine ratings, 1 to 4 = good to very good action
Description: as §1, §2

Brachiaria [3] = experiment: Post-emergence herbicidal action; details: 250 g a.i./ha (500 litres water/ha), sprayed at 4- to 6-leaf stage, evaluated after about 18 days; scale of nine ratings, 1 to 4 = good to very good action
Description: as §1, §2

Chenopodium [4] = experiment: Post-emergence herbicidal action; details: 250 g a.i./ha (500 litres water/ha), sprayed at 4- to 6-leaf stage, evaluated after about 18 days; scale of nine ratings, 1 to 4 = good to very good action
Description: as §1, §2

Digitaria [5] = experiment: Post-emergence herbicidal action; details: 250 g a.i./ha (500 litres water/ha), sprayed at 4- to 6-leaf stage, evaluated after about 18 days; scale of nine ratings, 1 to 4 = good to very good action
Description: as §1, §2

Panicum [6] = experiment: Post-emergence herbicidal action; details: 250 g a.i./ha (500 litres water/ha), sprayed at 4- to 6-leaf stage, evaluated after about 18 days; scale of nine ratings, 1 to 4 = good to very good action
Description: as §1, §2

Setaria = experiment: Post-emergence herbicidal action; details: 250 g a.i./ha (500 litres water/ha), sprayed at 4- to 6-leaf stage, evaluated after about 18 days; scale of nine ratings, 1 to 4 = good to very good action
Description: as §1, §2

Stellaria = experiment: Post-emergence herbicidal action; details: 250 g a.i./ha (500 litres water/ha), sprayed at 4- to 6-leaf stage, evaluated after about 18 days; scale of nine ratings, 1 to 4 = good to very good action
Description: as §1, §2

Abutilon [7] = experiment: Pre-emergence herbicidal action; details: 250 g a.i./ha (500 litres water/ha), sprayed immediately after sowing, evaluated after 3 weeks; scale of nine ratings, 1 to 4 = good to very good action
Description: (§3) Herbicidal Action Prior to Emergence of the Plants (Pre-Emergence Action) Monocotyledonous and dicotyledonous test plants are sown in standard soil in plastic pots. Immediately after sowing, an aqueous suspension (prepared from a 25% wettable powder (Example F3, b) according to WO 97/34485) or an emulsion (prepared from a 25% emulsifiable concentrate (Example F1, c)) of the test compounds is applied by spraying at a rate of application corresponding to 250 […]). The test plants are then cultivated in a greenhouse under optimum conditions.

Amarantus [8] = experiment: Pre-emergence herbicidal action; details: 250 g a.i./ha (500 litres water/ha), sprayed immediately after sowing, evaluated after 3 weeks; scale of nine ratings, 1 to 4 = good to very good action
Description: as §3

Brachiaria [9] = experiment: Pre-emergence herbicidal action; details: 250 g a.i./ha (500 litres water/ha), sprayed immediately after sowing, evaluated after 3 weeks; scale of nine ratings, 1 to 4 = good to very good action
Description: as §3

Chenopodium [10] = experiment: Pre-emergence herbicidal action; details: 250 g a.i./ha (500 litres water/ha), sprayed immediately after sowing, evaluated after 3 weeks; scale of nine ratings, 1 to 4 = good to very good action
Description: as §3

Digitaria [11] = experiment: Pre-emergence herbicidal action; details: 250 g a.i./ha (500 litres water/ha), sprayed immediately after sowing, evaluated after 3 weeks; scale of nine ratings, 1 to 4 = good to very good action
Description: as §3

Echinochloa = experiment: Pre-emergence herbicidal action; details: 250 g a.i./ha (500 litres water/ha), sprayed immediately after sowing, evaluated after 3 weeks; scale of nine ratings, 1 to 4 = good to very good action
Description: as §3

Euphoria = experiment: Pre-emergence herbicidal action; details: 250 g a.i./ha (500 litres water/ha), sprayed immediately after sowing, evaluated after 3 weeks; scale of nine ratings, 1 to 4 = good to very good action
Description: as §3

Panicum [12] = experiment: Pre-emergence herbicidal action; details: 250 g a.i./ha (500 litres water/ha), sprayed immediately after sowing, evaluated after 3 weeks; scale of nine ratings, 1 to 4 = good to very good action
Description: as §3

| Structure (SMILES) | Post-emergence action, rating, Abutilon (Abutilon [1]) | Post-emergence action, rating, Amarantus (Amarantus [2]) | Post-emergence action, rating, Brachiaria (Brachiaria [3]) | Post-emergence action, rating, Chenopodium (Chenopodium [4]) | Post-emergence action, rating, Digitaria (Digitaria [5]) | Post-emergence action, rating, Panicum (Panicum [6]) | Post-emergence action, rating, Setaria (Setaria) | Post-emergence action, rating, Stellaria (Stellaria) | Pre-emergence action, rating, Abutilon (Abutilon [7]) | Pre-emergence action, rating, Amarantus (Amarantus [8]) | Pre-emergence action, rating, Brachiaria (Brachiaria [9]) | Pre-emergence action, rating, Chenopodium (Chenopodium [10]) | Pre-emergence action, rating, Digitaria (Digitaria [11]) | Pre-emergence action, rating, Echinochloa (Echinochloa) | Pre-emergence action, rating, Euphoria (Euphoria) | Pre-emergence action, rating, Panicum (Panicum [12]) |
| --- | --- | --- | --- | --- | --- | --- | --- | --- | --- | --- | --- | --- | --- | --- | --- | --- |
| Cc1nc(C(F)(F)F)ccc1C(=O)C1=C(Cl)C(C)(C)C(=O)C(C)(C)C1=NS(C)(=O)=O [1.001, N-[3-chloro-4,4,6,6-tetramethyl-2-(2-methyl-6-trifluoromethyl-pyridine-3-carbonyl)-5-oxo-cyclohex-2-en-ylidene]-methanesulfonamide] | 2 | 2 | 1 | 2 | 1 | 1 | 1 | 2 |  |  |  |  |  |  |  |  |
| Cc1nc(C(F)(F)F)ccc1C(=O)C1=C(Cl)C(C)(C)C(=O)C(C)(C)C1=NS(=O)(=O)c1cccnc1F [1.026, N-[3-chloro-5-oxo-4,4,6,6-tetramethyl-2-(2-methyl-6-trifluoromethyl-pyridine-3-carbonyl)-cyclohex-2-en-ylidene]-3-(2′-fluoropyridyl)sulfonamide] | 1 | 1 | 2 | 1 | 1 | 1 | 1 | 2 | 1 | 1 | 1 | 1 | 1 | 1 | 2 | 1 |
| Cc1nc(C(F)(F)F)ccc1C(=O)C1=C(Cl)C(C)(C)C(=O)C(C)(C)C1=NS(=O)(=O)c1ccccc1 [1.027] | 1 | 2 | 2 | 1 | 2 | 2 | 1 | 1 | 1 | 1 | 1 | 1 | 1 | 1 | 1 | 1 |
| C=CS(=O)(=O)N=C1C(C(=O)c2ccc(C(F)(F)F)nc2C)=C(Cl)C(C)(C)C(=O)C1(C)C [1.028, N-[3-chloro-3-oxo-4,4,6,6-tetramethyl-2-(2-methyl-6-trifluoromethyl-pyridine-3-carbonyl)-cyclohex-2-en-ylidene]-vinylsulfonamide] | 1 | 2 | 2 | 1 | 1 | 1 | 1 | 1 | 1 | 1 | 1 | 1 | 3 | 1 | 2 | 1 |
| CSC1=C(C(=O)c2ccc(C(F)(F)F)nc2C)C(=NS(=O)(=O)c2cccnc2F)C(C)(C)C(=O)C1(C)C [1.078, N-[3-methylthio-5-oxo-4,4,6,6-tetramethyl-2-(2-methyl-6-trifluoromethyl-pyridine-3-carbonyl)-cyclohex-2-en-ylidene]-3-(2′-fluoropyridyl)sulfonamide] | 1 | 2 | 3 | 1 | 1 | 1 | 2 | 3 | 1 | 1 | 2 | 1 | 1 | 1 | 2 | 1 |
| CSC1=C(C(=O)c2ccc(C(F)(F)F)nc2C)C(=NS(=O)(=O)c2ccccc2)C(C)(C)C(=O)C1(C)C [1.079] | 2 | 2 | 2 | 1 | 2 | 2 | 2 | 1 | 1 | 1 | 1 | 1 | 1 | 1 | 2 | 1 |
